± gives the expanded uncertainty stated by the source.
Legend:
[1] = 101.33 kPa, Liquid
[2] = Boiling temperature at pressure P; conditions: 101.33 kPa; Liquid; Distillation
[3] = refractive index (Na D-line) (dimensionless); conditions: 293.15 K; 101.33 kPa; Liquid; Standard Abbe refractometry

| mass density ([1]; 298.15 K) | Boiling temperature at pressure P [2] | refractive index [3] | mass density ([1]; 293.15 K) | Compound |
| --- | --- | --- | --- | --- |
| 1044.3 ± 0.26 kg/m3 | 117.70 ± 0.5 °C | 1.3721 ± 0.0007 |  | CC(=O)O [acetic acid] |
|  | 109.90 ± 2 °C | 1.3711 ± 0.0008 | 1218.5 ± 2.5 kg/m3 | O=CO [formic acid] |
| 863.75 ± 0.85 kg/m3 | 152.39 ± 0.5 °C | 1.4913 ± 0.0008 |  | CC(C)c1ccccc1 [isopropylbenzene] |
| 988 ± 0.53 kg/m3 | 141.00 ± 0.5 °C | 1.3811 ± 0.0008 |  | CCC(=O)O [propanoic acid] |
